# Laboratory results as given in PubChem BioAssay AID2060488 (Molecular Pharmacology Branch, DTP, NCI, 2025).
# Tested on: 966289-007-R4-J1-PDC complex spheroid viability
# Assay: Anticancer human tumor 966289-007-R4-J1-PDC patient-derived pancreatic adenocarcinoma cell line growth inhibition [GQUAD]
# Conditions: for IC50: curve of first compound; for viability, T/C: stronger effect = lower value
# Summary of the method: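 Multi-cell-type spheroids of tumor cells with HUVEC and mesenchymal stem cells, treated with drug combinations. Concentrations descend in half-log steps from near clinical Cmax, or from 10 microM where Cmax is unknown; viability read-out.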
# [1] = second compound 0.0316 µM, first compound 0.0316 µM
# [2] = second compound 0.0316 µM, first compound 0.1 µM
# [3] = second compound 0.0316 µM, first compound 0.316 µM
# [4] = second compound 0.0316 µM, first compound 1 µM
# [5] = second compound 0.0316 µM, first compound 3.16 µM
# [6] = second compound 0.0316 µM, first compound 10 µM
# [7] = second compound 0.1 µM, first compound 0.0316 µM
# [8] = second compound 0.1 µM, first compound 0.1 µM
# [9] = second compound 0.1 µM, first compound 0.316 µM
# [10] = second compound 0.1 µM, first compound 1 µM
# [11] = second compound 0.1 µM, first compound 3.16 µM
# [12] = second compound 0.1 µM, first compound 10 µM
# [13] = second compound 0.316 µM, first compound 0.0316 µM
# [14] = second compound 0.316 µM, first compound 0.1 µM
# [15] = second compound 0.316 µM, first compound 0.316 µM
# [16] = second compound 0.316 µM, first compound 1 µM
# [17] = second compound 0.316 µM, first compound 3.16 µM
# [18] = second compound 0.316 µM, first compound 10 µM
# [19] = second compound 1 µM, first compound 0.0316 µM
# [20] = second compound 1 µM, first compound 0.1 µM
# [21] = second compound 1 µM, first compound 0.316 µM
# [22] = second compound 1 µM, first compound 1 µM
# [23] = second compound 1 µM, first compound 3.16 µM
# [24] = second compound 1 µM, first compound 10 µM
# [25] = second compound 3.16 µM, first compound 0.0316 µM
# [26] = second compound 3.16 µM, first compound 0.1 µM
# [27] = second compound 3.16 µM, first compound 0.316 µM
# [28] = second compound 3.16 µM, first compound 1 µM
# [29] = second compound 3.16 µM, first compound 3.16 µM
# [30] = second compound 3.16 µM, first compound 10 µM
# [31] = second compound 10 µM, first compound 0.0316 µM
# [32] = second compound 10 µM, first compound 0.1 µM
# [33] = second compound 10 µM, first compound 0.316 µM
# [34] = second compound 10 µM, first compound 1 µM
# [35] = second compound 10 µM, first compound 3.16 µM
# [36] = second compound 10 µM, first compound 10 µM
# 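Further: spheroids exposed to the agents for seven days before readout.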
# 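Wherever viability, T/C is given: percent viability relative to DMSO vehicle control wells taken as 100%.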
smiles,measurement,setting,value
O=C(NO)c1cnc(N2CCN(S(=O)(=O)c3ccc4ccccc4c3)CC2)nc1 + CN(C)c1ccc(Nc2c3ccc(NC(=O)CCN4CCCC4)cc3nc3cc(NC(=O)CCN4CCCC4)ccc23)cc1,IC50,second compound 0.0316 µM,0.363 µM
same,IC50,second compound 0.1 µM,0.431 µM
same,IC50,second compound 0.316 µM,0.343 µM
same,IC50,second compound 1 µM,0.264 µM
same,IC50,second compound 3.16 µM,0.279 µM
same,IC50,second compound 10 µM,0.191 µM
same,"viability, T/C",[1],112%
same,"viability, T/C",[2],107%
same,"viability, T/C",[3],55.2%
same,"viability, T/C",[4],9.1%
same,"viability, T/C",[5],1.51%
same,"viability, T/C",[6],0.76%
same,"viability, T/C",[7],105%
same,"viability, T/C",[8],106%
same,"viability, T/C",[9],64.2%
same,"viability, T/C",[10],10.4%
same,"viability, T/C",[11],1.4%
same,"viability, T/C",[12],0.24%
same,"viability, T/C",[13],106%
same,"viability, T/C",[14],108%
same,"viability, T/C",[15],52.9%
same,"viability, T/C",[16],7.46%
same,"viability, T/C",[17],1.19%
same,"viability, T/C",[18],0.23%
same,"viability, T/C",[19],100%
same,"viability, T/C",[20],108%
same,"viability, T/C",[21],39.9%
same,"viability, T/C",[22],8.91%
same,"viability, T/C",[23],1.33%
same,"viability, T/C",[24],0.27%
same,"viability, T/C",[25],97.1%
same,"viability, T/C",[26],107%
same,"viability, T/C",[27],43.6%
same,"viability, T/C",[28],5.36%
same,"viability, T/C",[29],0.77%
same,"viability, T/C",[30],0.21%
same,"viability, T/C",[31],101%
same,"viability, T/C",[32],106%
same,"viability, T/C",[33],7.93%
same,"viability, T/C",[34],1.01%
same,"viability, T/C",[35],0.44%
same,"viability, T/C",[36],0.14%
COc1cccc2c1C(=O)c1c(O)c3c(c(O)c1C2=O)CC(O)(C(=O)CO)CC3OC1CC(N)C(O)C(C)O1 (centres undefined) + CN(C)c1ccc(Nc2c3ccc(NC(=O)CCN4CCCC4)cc3nc3cc(NC(=O)CCN4CCCC4)ccc23)cc1,IC50,second compound 0.0316 µM,0.0692 µM
same,IC50,second compound 0.1 µM,0.0671 µM
same,IC50,second compound 0.316 µM,0.0651 µM
same,IC50,second compound 1 µM,0.0662 µM
same,IC50,second compound 3.16 µM,0.0657 µM
same,IC50,second compound 10 µM,0.0596 µM
same,"viability, T/C",[1],112%
same,"viability, T/C",[2],20.7%
same,"viability, T/C",[3],3.69%
same,"viability, T/C",[4],0.82%
same,"viability, T/C",[5],0.35%
same,"viability, T/C",[6],0.92%
same,"viability, T/C",[7],108%
same,"viability, T/C",[8],19.4%
same,"viability, T/C",[9],3.8%
same,"viability, T/C",[10],0.83%
same,"viability, T/C",[11],0.26%
same,"viability, T/C",[12],0.53%
same,"viability, T/C",[13],105%
same,"viability, T/C",[14],17.7%
same,"viability, T/C",[15],3.65%
same,"viability, T/C",[16],0.88%
same,"viability, T/C",[17],0.29%
same,"viability, T/C",[18],0.67%
same,"viability, T/C",[19],101%
same,"viability, T/C",[20],21.3%
same,"viability, T/C",[21],3.85%
same,"viability, T/C",[22],0.93%
same,"viability, T/C",[23],0.27%
same,"viability, T/C",[24],0.34%
same,"viability, T/C",[25],106%
same,"viability, T/C",[26],18.1%
same,"viability, T/C",[27],3.67%
same,"viability, T/C",[28],0.97%
same,"viability, T/C",[29],0.25%
same,"viability, T/C",[30],0.67%
same,"viability, T/C",[31],97.9%
same,"viability, T/C",[32],11%
same,"viability, T/C",[33],1.38%
same,"viability, T/C",[34],0.42%
same,"viability, T/C",[35],0.24%
same,"viability, T/C",[36],0.29%
